# How the values were obtained:
# Homo sapiens = species on record: Homo sapiens; experiment: Selectivity index, ratio of Ki for recombinant human MAO-B to Ki for recombinant human MAO-A
# [1] = molecular target: T1, Amine oxidase [flavin-containing] A (Homo sapiens, UniProt P21397); experiment: Reversible inhibition of recombinant human MAO-A assessed as enzyme activity recovery at 5 time Ki value preincubated for 15 mins followed by dilution of enzyme-inhibitor mixture for 24 hrs and subsequent p-tyramine substrate addition by dialysis method
# T1 sequence (P21397 whole entry): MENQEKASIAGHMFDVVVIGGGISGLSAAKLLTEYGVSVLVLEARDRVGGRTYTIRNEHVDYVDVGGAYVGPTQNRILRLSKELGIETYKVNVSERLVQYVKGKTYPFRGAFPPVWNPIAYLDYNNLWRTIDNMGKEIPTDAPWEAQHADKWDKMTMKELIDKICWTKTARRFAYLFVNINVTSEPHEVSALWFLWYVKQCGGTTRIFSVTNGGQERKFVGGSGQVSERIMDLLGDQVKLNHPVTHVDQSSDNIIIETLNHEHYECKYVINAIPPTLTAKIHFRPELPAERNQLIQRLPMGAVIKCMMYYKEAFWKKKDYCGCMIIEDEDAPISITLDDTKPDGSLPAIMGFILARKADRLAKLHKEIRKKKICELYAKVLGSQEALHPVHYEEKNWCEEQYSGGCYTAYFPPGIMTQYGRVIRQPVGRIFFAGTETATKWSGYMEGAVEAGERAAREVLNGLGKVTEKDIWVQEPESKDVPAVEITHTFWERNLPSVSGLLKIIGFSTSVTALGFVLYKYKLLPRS
# [2] = molecular target: T2, Amine oxidase [flavin-containing] B (Homo sapiens, UniProt P27338)
# T2 sequence (P27338 whole entry): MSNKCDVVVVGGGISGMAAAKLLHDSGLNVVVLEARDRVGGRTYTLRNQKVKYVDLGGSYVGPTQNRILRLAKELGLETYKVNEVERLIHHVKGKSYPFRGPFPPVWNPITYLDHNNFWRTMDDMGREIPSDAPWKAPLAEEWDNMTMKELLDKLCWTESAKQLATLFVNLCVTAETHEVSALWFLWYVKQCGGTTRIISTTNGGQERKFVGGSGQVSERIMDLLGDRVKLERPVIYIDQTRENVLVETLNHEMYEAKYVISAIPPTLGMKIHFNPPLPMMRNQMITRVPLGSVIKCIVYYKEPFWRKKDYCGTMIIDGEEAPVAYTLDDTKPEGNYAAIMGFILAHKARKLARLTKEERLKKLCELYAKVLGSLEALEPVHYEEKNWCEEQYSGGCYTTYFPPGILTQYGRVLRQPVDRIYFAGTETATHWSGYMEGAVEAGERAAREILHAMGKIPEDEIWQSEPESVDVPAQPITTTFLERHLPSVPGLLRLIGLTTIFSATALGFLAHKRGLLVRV
# Description: Inhibition of recombinant human MAO-B assessed as reduction in H2O2 production preincubated for 30 mins followed by p-tyramine substrate addition measured after 30 mins by amplex red reagent based fluorescence assay
# [3] = Cytotoxicity against human HepG2 cells assessed as cell viability at 1 uM after 24 hrs by MTT assay relative to control; type: cell-based; details: read-out: Activity
# [4] = Cytotoxicity against human HepG2 cells assessed as cell viability at 25 uM after 24 hrs by MTT assay relative to control; type: cell-based; details: read-out: Activity
# [5] = molecular target: T1, Amine oxidase [flavin-containing] A; experiment: Competitive inhibition of recombinant human MAO-A assessed as reduction in H2O2 production preincubated for 30 mins followed by p-tyramine substrate addition measured after 30 mins by Lineweaver-Burk plot analysis; details: 0.5 h
# in vitro = details: PAMPA
# Description: Permeability of the compound at 50 ug/ml after 16 hrs by PAMPA
# [6] = molecular target: T1, Amine oxidase [flavin-containing] A; experiment: Inhibition of recombinant human MAO-A assessed as reduction in H2O2 production preincubated for 30 mins followed by p-tyramine substrate addition measured after 30 mins by amplex red reagent based fluorescence assay
# [7] = Cytotoxicity against human HepG2 cells assessed as cell viability at 5 uM after 24 hrs by MTT assay relative to control; type: cell-based; details: read-out: Activity
# [8] = molecular target: T1, Amine oxidase [flavin-containing] A; experiment: Suicide inhibition of recombinant human MAO-A assessed as reduction in H2O2 production preincubated for 30 mins followed by p-tyramine substrate addition measured after 30 mins by Lineweaver-Burk plot analysis; details: 0.5 h
# [9] = molecular target: T1, Amine oxidase [flavin-containing] A; experiment: Irreversible inhibition of recombinant human MAO-A at 5 time Ki value preincubated for 15 mins followed by dilution of enzyme-inhibitor mixture for 24 hrs and subsequent p-tyramine substrate addition by dialysis method
Structure (SMILES),Ratio Ki (Homo sapiens),inhibition (INH) [1],Ki [2] [µM],"viability at 24 h, 1 µM [3] [%]","viability at 24 h, 25 µM [4] [%]",inhibition (INH) [5],"Papp at 16 h, 50 ug/ml (in vitro) [×10⁻⁶ cm/s]",Ki [6] [µM],"viability at 24 h, 5 µM [7] [%]",inhibition (INH) [8],inhibition (INH) [9]
COc1cc(C2=NNC(c3ccc(Cl)cc3)C2)ccc1O (configuration not stated),1750,Active,140,99,90.2,Active,13.9,0.08,94.5,,
NCCNC(=O)c1ccc(Cl)cn1 [LAZABEMIDE],,Active,,,,Active,,7900,,,
O=C(NCCN1CCOCC1)c1ccc(Cl)cc1 [MOCLOBEMIDE],,Active,,,,Active,,,,,
COc1cc(C2=NN(C(=O)c3ccccc3)C(c3ccc(Cl)cc3)C2)ccc1O (configuration not stated),229,Active,6000,90,78.2,Active,,26.2,86.3,,
C#CCN(C)[C@H](C)Cc1ccccc1 [SELEGILINE],,,,,,,,,,Active,Active
COc1cc(C2=NN(C(=S)Nc3ccccc3)C(c3ccc(Cl)cc3)C2)ccc1O (configuration not stated),244,Active,4770,95,80.3,Active,9.55,19.6,88.2,,
CCn1cc(C(=O)O)c(=O)c2cc(F)c(N3CCNC(C)C3)c(F)c21 (configuration not stated) [LOMEFLOXACIN],,,,,,,1.24,,,,
COc1cc(C2=NN(C(=O)Oc3ccccc3)C(c3ccc(Cl)cc3)C2)ccc1O (configuration not stated),29.9,Active,5770,93.1,77,Active,,193,81.7,,
C[C@]12CC[C@@H]3c4ccc(O)cc4CC[C@H]3[C@@H]1CC[C@@H]2O [ESTRADIOL],,,,,,,11.8,,,,
COc1cc(C2=NN(S(=O)(=O)c3ccc(C)cc3)C(c3ccc(Cl)cc3)C2)ccc1O (configuration not stated),150,Active,6000,91.2,64.1,Active,12,40,79.5,,

# Reference: ChEMBL document CHEMBL4257534, “Curcumin-based pyrazoline analogues as selective inhibitors of human monoamine oxidase A” (Medchemcomm, 2018)
